# Where two headings read alike, the source gives them in different places.
# Assay: Simulated intestinal fluid (SIF) stability in the presence of various enzymes
# Type: in vitro ADME
# Conditions: 1 μM
# Method: (§1) Studies were carried out in simulated intestinal fluid in the presence of various enzymes. Simulated intestinal fluid was prepared by dissolving 6.8 g of monobasic potassium phosphate in 1.0 L of water. Aliquots of this solution were taken and the pH was adjusted to 6.8. Individual enzymes were then spiked into aliquots for each experiment. A DMSO stock was first prepared for the test article. Aliquots of the DMSO solution were dosed into 700 μL of matrix, which had been pre-warmed to 37° C., at a final test article concentration of 1 μM. […] Samples were stored at 4° C. until the end of the experiment. After the final time point was sampled, the plate was mixed and then centrifuged at 3,000 rpm for 10 minutes. Calibration standards were prepared in matched matrix. […] Analytical conditions are outlined in Appendix 8-1.
# as §1, with “10-1.” for “8-1.”
# Studies were carried out in simulated intestinal fluid in the presence of various enzymes. Simulated intestinal fluid was prepared by dissolving 6.8 g of monobasic potassium phosphate in 1.0 L of water. Aliquots of this solution were taken and the pH was adjusted to 6.8. Individual enzymes were then spiked into aliquots for each experiment. A DMSO stock was first prepared for test article. Aliquots of the DMSO solution were dosed into 700 μL of matrix, which had been pre-warmed to 37° C., at a final test article concentration of 1 μM. […] Samples were stored at 4° C. until the end of experiment. After final time point was sampled, the plate was mixed and then centrifuged at 3,000 rpm for 10 minutes. Calibration standards were prepared in matched matrix. […] Analytical conditions are outlined in Appendix 13-1.
# as §1, with “17-1.” for “8-1.”
# [1] = SIF + Carboxypeptidase A, 0 min
# [2] = SIF + Carboxypeptidase A, 15 min
# [3] = SIF + Carboxypeptidase A, 30 min
# [4] = SIF + Carboxypeptidase A, 60 min
# [5] = SIF + Carboxypeptidase A, 120 min
# [6] = SIF + Carboxypeptidase B, 0 min
# [7] = SIF + Carboxypeptidase B, 15 min
# [8] = SIF + Carboxypeptidase B, 30 min
# [9] = SIF + Carboxypeptidase B, 60 min
# [10] = SIF + Carboxypeptidase B, 120 min
# [11] = simulated intestinal fluid with carboxypeptidase A, pH 6.8, SIF + Carboxypeptidase A, read-out: Half-life
# [12] = simulated intestinal fluid with carboxypeptidase B, pH 6.8, SIF + Carboxypeptidase B, read-out: Half-life
# [13] = simulated intestinal fluid with chymotrypsin, pH 6.8, SIF + Chymotrypsin, read-out: Half-life
# [14] = simulated intestinal fluid with elastase, pH 6.8, SIF + Elastase, read-out: Half-life
# [15] = simulated intestinal fluid with pancreatin, pH 6.8, SIF + Pancreatin, read-out: Half-life
# [16] = simulated intestinal fluid with trypsin, pH 6.8, SIF + Trypsin, read-out: Half-life
Structure (SMILES),% Remaining of Initial (n = 1) [1] [%],% Remaining of Initial (n = 1) [2] [%],% Remaining of Initial (n = 1) [3] [%],% Remaining of Initial (n = 1) [4] [%],% Remaining of Initial (n = 1) [5] [%],% Remaining of Initial (n = 1) [6] [%],% Remaining of Initial (n = 1) [7] [%],% Remaining of Initial (n = 1) [8] [%],% Remaining of Initial (n = 1) [9] [%],% Remaining of Initial (n = 1) [10] [%],"% Remaining of Initial (n = 1) (SIF + Chymotrypsin, 0 min) [%]","% Remaining of Initial (n = 1) (SIF + Chymotrypsin, 15 min) [%]","% Remaining of Initial (n = 1) (SIF + Chymotrypsin, 30 min) [%]","% Remaining of Initial (n = 1) (SIF + Chymotrypsin, 60 min) [%]","% Remaining of Initial (n = 1) (SIF + Chymotrypsin, 120 min) [%]","% Remaining of Initial (n = 1) (SIF + Elastase, 0 min) [%]","% Remaining of Initial (n = 1) (SIF + Elastase, 15 min) [%]","% Remaining of Initial (n = 1) (SIF + Elastase, 30 min) [%]","% Remaining of Initial (n = 1) (SIF + Elastase, 60 min) [%]","% Remaining of Initial (n = 1) (SIF + Elastase, 120 min) [%]",further results
CCCCCCCCCCCCCCCC(=O)NCCOC(=O)CCC [Compound I-2],100,79,70,56,43,100,75,54,40,17,100,78,70,60,58,100,61,42,30,28,"% Remaining of Initial (n = 1) (SIF + Pancreatin, 0 min): 100%; % Remaining of Initial (n = 1) (SIF + Pancreatin, 15 min): 93%; % Remaining of Initial (n = 1) (SIF + Pancreatin, 30 min): 91%; % Remaining of Initial (n = 1) (SIF + Pancreatin, 60 min): 98%; % Remaining of Initial (n = 1) (SIF + Pancreatin, 120 min): 60%; % Remaining of Initial (n = 1) (SIF + Trypsin, 0 min): 100%; % Remaining of Initial (n = 1) (SIF + Trypsin, 15 min): 82%; % Remaining of Initial (n = 1) (SIF + Trypsin, 30 min): 72%; % Remaining of Initial (n = 1) (SIF + Trypsin, 60 min): 75%; % Remaining of Initial (n = 1) (SIF + Trypsin, 120 min): 46%; half-life at 1 μM [11]: 1.53 h; half-life at 1 μM [12]: 0.717 h; half-life at 1 μM (simulated intestinal fluid with chymotrypsin, pH 6.8, SIF + Chymotrypsin, outside the sampled time range, read-out: Half-life, calculated (in parentheses)): 2.4 h; half-life at 1 μM [13]: > 2 h; half-life at 1 μM [14]: 0.617 h; half-life at 1 μM (simulated intestinal fluid with pancreatin, pH 6.8, SIF + Pancreatin, outside the sampled time range, read-out: Half-life, calculated (in parentheses)): 3.42 h; half-life at 1 μM [15]: > 2 h; half-life at 1 μM (simulated intestinal fluid with trypsin, pH 6.8, SIF + Trypsin, outside the sampled time range, read-out: Half-life, calculated (in parentheses)): 2.02 h; half-life at 1 μM [16]: > 2 h"
"CCCCCCCCCCCCCCCC(=O)NCCOC(=O)CCC(=O)OCC(COC(=O)CCCCCCC)OC(=O)CCCCCCC (centres unmarked) [Compound I-3, PEA-Succinate-Glycerol-Di-Caprylic]",100,76,66,36,20,100,86,77,41,15,100,102,84,61,53,100,94,61,44,29,"% Remaining of Initial (n = 1) (SIF + Pancreatin, 0 min): 100%; % Remaining of Initial (n = 1) (SIF + Pancreatin, 15 min): <1.0%; % Remaining of Initial (n = 1) (SIF + Pancreatin, 30 min): <1.0%; % Remaining of Initial (n = 1) (SIF + Pancreatin, 60 min): <1.0%; % Remaining of Initial (n = 1) (SIF + Pancreatin, 120 min): <1.0%; % Remaining of Initial (n = 1) (SIF + Trypsin, 0 min): 100%; % Remaining of Initial (n = 1) (SIF + Trypsin, 15 min): 67%; % Remaining of Initial (n = 1) (SIF + Trypsin, 30 min): 60%; % Remaining of Initial (n = 1) (SIF + Trypsin, 60 min): 55%; % Remaining of Initial (n = 1) (SIF + Trypsin, 120 min): 43%; half-life at 1 μM [11]: 0.767 h; half-life at 1 μM [12]: 0.817 h; half-life at 1 μM [13]: 1.78 h; half-life at 1 μM [14]: 0.917 h; half-life at 1 μM [15]: < 0.0167 h; half-life at 1 μM [16]: 1.55 h"
CCCCC/C=C\C/C=C\CCCCCCCC(=O)OCCNC(=O)CCCCCCCCCCCCCCC [Compound I-6],100,77,46,60,56,100,87,93,54,19,100,106,99,51,55,100,95,74,64,69,"% Remaining of Initial (n = 1) (SIF + Pancreatin, 0 min): 100%; % Remaining of Initial (n = 1) (SIF + Pancreatin, 15 min): 27%; % Remaining of Initial (n = 1) (SIF + Pancreatin, 30 min): 11%; % Remaining of Initial (n = 1) (SIF + Pancreatin, 60 min): 3.1%; % Remaining of Initial (n = 1) (SIF + Pancreatin, 120 min): 1.7%; % Remaining of Initial (n = 1) (SIF + Trypsin, 0 min): 100%; % Remaining of Initial (n = 1) (SIF + Trypsin, 15 min): 116%; % Remaining of Initial (n = 1) (SIF + Trypsin, 30 min): 87%; % Remaining of Initial (n = 1) (SIF + Trypsin, 60 min): 83%; % Remaining of Initial (n = 1) (SIF + Trypsin, 120 min): 123%; half-life at 1 μM (simulated intestinal fluid with carboxypeptidase A, pH 6.8, SIF + Carboxypeptidase A, outside the sampled time range, read-out: Half-life, calculated (in parentheses)): 2.23 h; half-life at 1 μM [11]: > 2 h; half-life at 1 μM [12]: 1.03 h; half-life at 1 μM [13]: 1.68 h; half-life at 1 μM (simulated intestinal fluid with elastase, pH 6.8, SIF + Elastase, outside the sampled time range, read-out: Half-life, calculated (in parentheses)): 3.08 h; half-life at 1 μM [14]: > 2 h; half-life at 1 μM [15]: 0.138 h; half-life at 1 μM [16]: > 2 h"
CCCCCCCCCCCCCCCC(=O)NCCOC(=O)CCC(=O)OC[C@H]1O[C@@](CO)(O[C@H]2O[C@H](CO)[C@@H](O)[C@H](O)[C@H]2O)[C@@H](O)[C@@H]1O [Compound I-7],100,30,10,4.1,3.9,100,33,14,5.7,2.2,100,42,23,13,15,100,44,14,3.8,3.5,"% Remaining of Initial (n = 1) (SIF + Pancreatin, 0 min): 100%; % Remaining of Initial (n = 1) (SIF + Pancreatin, 15 min): 40%; % Remaining of Initial (n = 1) (SIF + Pancreatin, 30 min): 19%; % Remaining of Initial (n = 1) (SIF + Pancreatin, 60 min): 6.5%; % Remaining of Initial (n = 1) (SIF + Pancreatin, 120 min): 2.7%; % Remaining of Initial (n = 1) (SIF + Trypsin, 0 min): 100%; % Remaining of Initial (n = 1) (SIF + Trypsin, 15 min): 66%; % Remaining of Initial (n = 1) (SIF + Trypsin, 30 min): 44%; % Remaining of Initial (n = 1) (SIF + Trypsin, 60 min): 38%; % Remaining of Initial (n = 1) (SIF + Trypsin, 120 min): 33%; half-life at 1 μM [11]: 0.147 h; half-life at 1 μM [12]: 0.167 h; half-life at 1 μM [13]: 0.233 h; half-life at 1 μM [14]: 0.2 h; half-life at 1 μM [15]: 0.2 h; half-life at 1 μM [16]: 0.833 h"
